# Legend:
# [1] = system: cyclooxygenase; conditions: described in U.S. Pat. No. 5,143,928; cited from earlier work
# [2] = system: 5-lipoxygenase; conditions: described in U.S. Pat. No. 5,143,928; cited from earlier work
# [3] = system: NMDA-induced injury
# Method: Intrastriatal injections of NMDA (15 nmol/0.5 μL) were performed in male and female Sprague-Dawley rat pups (Charles River Laboratory, Portage, Mich.) on Postnatal Day (PND) 7. The animals were anesthetized with ether, and the calvarium was exposed by a midline incision through the skin. The rat pups were placed in a plaster of paris mold that was secured to a small animal stereotaxic instrument (Kopf Instruments). NMDA (Sigma) was dissolved in 0.1 M phosphate-buffered saline (PBS) adjusted to pH 7.4 with 1 N NaOH. Injections of NMDA ([…]) were placed in the middle of the right posterior corpus striatum (coordinates relative to Bregma; AP -2.0 mm, ML 2.5 mm, at a depth of 4.0 mm from the dura) with a 26-gauge Hamilton syringe. The syringe was left in place for 2 minutes following the injections to limit leakage. Temperature of the animals was kept constant after surgery in a thermostatically controlled environment (HovaBator chick incubator; BFG Corp., Savannah, Ga.) set at 35° C. to 36° C. for 1 hour after the last drug or vehicle injection. Drug solutions were prepared in PBS and injected intraperitoneally (0.05 mL volume) 15 minutes, and 2.25 hours after intrastriatal injection of NMDA. Control animals received equal volumes of PBS.
# After surgery, all animals were returned to the mothers for 5 days, and decapitated on PND 12. The brains were removed, the cerebral hemispheres were separated, and wet weights of each hemisphere were determined individually. Differences of the hemispheric weights were compared for each animal using the formula: 100×(C-I/C)=percent damage, a value that indicates the severity of damage of the injected (I) cerebral hemisphere relative to that of the uninjected contralateral (C) hemisphere. Percent protection is used to indicate the relative protection of the neuroprotective compound compared to the control and was calculated as: 100×[1-(% damagetreated /% damagecontrol)]. Data were expressed as mean percent damage±S.E.M. in all groups. Independent t-tests were used for statistical comparisons.
# [4] = system: canine leptomeningeal smooth muscle cells; experiment: Amyloid β-peptide-induced cytotoxicity in canine leptomeningeal smooth muscle cells; format: cell-based, dog
# Excerpt: Canine smooth muscle cells were isolated from freshly obtained old dog meninges. […] Old dogs have an angiopathy resembling the human condition. Smooth muscle cells are the site of cerebral vessel myopathy occurring in the Dutch form of Alzheimer's disease. The compromise of these cells ultimately leads to a cerebrovascular accident and the death of some humans.
# Cells from the meninges were dissociated and kept in culture in 10% fetal calf serum and Dulbecco's minimal essential media with antibiotics for about 1 week on tissue culture plates before use in biochemical studies or transferal to uncoated microscope slides for morphological studies. These smooth muscle cells represent brain blood vessel cells and they can be passaged several times. For inducing cytotoxicity, the cells were treated, in serum-free media, with 10 to 20 μM of amyloid β-peptide that was 42 amino acids long. This peptide corresponds to the human β-peptide sequence. The peptide was dissolved in water immediately before use. This small amount of protein is believed to approximate the concentration of protein observed in postmortem samples in the brains of people who died with Alzheimer's dementia.
# Percentages were determined by counting normal and apoptotic nuclei in three fields with five independent measures in a fluorescence microscope.
compound,measurement,setting,value
"CC(C)(C)c1cc(C=C2SC(=N)NC2=O)cc(C(C)(C)C)c1O [5-[[3,5-bis-(1,1-dimethylethyl)-4-hydroxyphenyl]methylene]-2-imino-4-thiazolidinone]",inhibition of cyclooxygenase activity,[1],inhibits the activities of both cyclooxygenase and 5-lipoxygenase
same,inhibition of 5-lipoxygenase activity,[2],inhibits the activities of both cyclooxygenase and 5-lipoxygenase
"CN[C@H](CC(=O)O)C(=O)O [NMDA, N-methyl-D-aspartate, reference compound]",reduction in wet weight of the ipsilateral cerebral hemisphere,"[3]; NMDA 15 nmol/0.5 μL injected into posterior striatum, i.p. PBS, N=10",20.6±1.8%
"COc1ccc2c(c1)c(CC(=O)O)c(C)n2C(=O)c1ccc(Cl)cc1 [indomethacin, reference compound]",protection compared with the thiazolidinone,"[3]; 2×30 mg/kg, versus thiazolidinone 2×30 mg/kg",comparable
human protein sequence: amyloid β-peptide that was 42 amino acids long; corresponds to the human β-peptide sequence [reference compound],earliest statistically significant cytotoxicity,[4]; 10 to 20 μM amyloid β-peptide,24 h
same,smooth muscle cells killed apoptotically,"[4]; 10 to 20 μM, 1-week period, serum-free media, Hoechst 33258, 10080 min",70% to 85
